Experimental data reported in patent publication US10538491B2, “4,5-substituted picolinamide and picolinonitrile metabotropic glutamate receptor 2 negative allosteric modulators” (Vanderbilt University, priority 2015, dated 2020).

Biological target: rat mGlu2 (Rattus norvegicus (Rat), UniProt P31421)
Assay: mGlu2 Ca2+ flux assay
Format: cell-based
Details: for IC50: Gα15 HEK293 cells stably expressing rat mGlu2, glutamate EC80, >10,000 = no plateau, >30,000 = no measurable activity; for remaining activity at 30 µM: read-out: rat mGlu2 Glu max
Description: Gα15 HEK293 cells stably expressing rat mGlu2 were plated in black-walled, clear-bottomed, poly-D-lysine coated 384-well plates in 20 μL of assay medium (DMEM containing 10% dialyzed FBS, 20 mM HEPES, and 1 mM sodium pyruvate) at a density of 12K cells/well. The cells were grown overnight at 37° C. in the presence of 5% CO2. The next day, medium was removed and the cells incubated with 20 μL of 2.3 μM Fluo-4, AM prepared as a 2.3 mM stock in DMSO and mixed in a 1:1 ratio with 10% (w/v) pluronic acid F-127 and diluted in assay buffer (Hank's balanced salt solution, 20 mM HEPES, and 2.5 mM probenecid) for 45 minutes at 37° C. Dye was removed, 20 μL of assay buffer was added, and the plate was incubated for 5 minutes at room temperature.
Ca^2+ flux was measured using the Functional Drug Screening System (FDSS7000, Hamamatsu, Japan). After establishment of a fluorescence baseline for about 3 seconds, the compounds of the present invention were added to the cells, and the response in cells was measured. 2.3 minutes later an EC20 concentration of the mGlu2 receptor agonist glutamate was added to the cells, and the response of the cells was measured for 1.9 minutes; an EC80 concentration of agonist was added and readings taken for an additional 1.7 minutes. All test compounds were dissolved and diluted to a concentration of 10 mM in 100% DMSO. Compounds were then serially diluted 1:3 in DMSO into 10 point concentration response curves, transferred to daughter plates, and further diluted into assay buffer to a 2× stock. Calcium fluorescence measures were recorded as fold over basal fluorescence; raw data was then normalized to the maximal response to glutamate. Antagonism of the agonist response of the mGlu2 receptor in the present invention was observed as a decrease in response to nearly maximal concentrations of glutamate in the presence of compound compared to the response to glutamate in the absence of compound.
The raw data file containing all time points was used as the data source in the analysis template. This was saved by the FDSS as a tab-delimited text file. Data were normalized using a static ratio function (F/F0) for each measurement of the total 360 values per well divided by each well's initial value. Data were then reduced to peak amplitudes (Max−Initial Min) using a time range that starts approximately 3 seconds prior to the glutamate EC80 addition and continues for approximately 90 seconds. This is sufficient time to capture the peak amplitude of the cellular calcium response. Individual amplitudes were expressed as % ECMax by multiplying each amplitude by 100 and then dividing the product by the mean of the amplitudes derived from the glutamate ECMax-treated wells. IC50 values for test compounds were generated by fitting the normalized values versus the log of the test compound concentration (in mol/L) using a 4 parameter logistic equation where none of the parameters were fixed. Each of the three values collected at each concentration of test compound were weighted evenly.
For NAMs, potency (IC50) and maximum response (% Glu Max), i.e. the amplitude of response in the presence of 30 μM test compound as a percentage of the maximal response to glutamate, are reported. […] Compounds with no measurable activity are designated as “>30,000 nM” since the top concentration of compound tested in the assay is 30 μM.

[1] = amplitude of response in the presence of 30 μM test compound as percentage of maximal response to glutamate

Sequence of rat mGlu2 (P31421 19-872): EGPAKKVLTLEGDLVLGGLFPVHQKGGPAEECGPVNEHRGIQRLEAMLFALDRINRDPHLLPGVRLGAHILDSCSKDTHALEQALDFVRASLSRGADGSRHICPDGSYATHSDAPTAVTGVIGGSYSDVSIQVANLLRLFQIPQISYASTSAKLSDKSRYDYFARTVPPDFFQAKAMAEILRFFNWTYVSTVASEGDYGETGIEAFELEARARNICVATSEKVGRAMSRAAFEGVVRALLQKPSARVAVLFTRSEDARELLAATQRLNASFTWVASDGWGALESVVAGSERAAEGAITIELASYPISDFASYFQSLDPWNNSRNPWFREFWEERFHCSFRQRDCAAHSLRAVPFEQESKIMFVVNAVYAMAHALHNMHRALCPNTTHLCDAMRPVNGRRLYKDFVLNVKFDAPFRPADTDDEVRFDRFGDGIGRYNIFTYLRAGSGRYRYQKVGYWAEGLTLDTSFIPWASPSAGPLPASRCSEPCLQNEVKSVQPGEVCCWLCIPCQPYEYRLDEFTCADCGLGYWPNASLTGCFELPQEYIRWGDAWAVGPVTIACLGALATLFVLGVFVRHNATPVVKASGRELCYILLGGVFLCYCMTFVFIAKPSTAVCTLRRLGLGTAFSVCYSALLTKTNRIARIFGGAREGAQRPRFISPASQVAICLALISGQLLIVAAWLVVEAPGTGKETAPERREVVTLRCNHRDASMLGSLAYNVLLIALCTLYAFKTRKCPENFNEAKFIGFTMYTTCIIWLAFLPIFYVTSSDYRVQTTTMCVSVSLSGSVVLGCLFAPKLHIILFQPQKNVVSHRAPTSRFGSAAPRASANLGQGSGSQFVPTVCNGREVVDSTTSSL

SMILES | IC50 [µM] | remaining activity at 30 µM [1] [%] | rat mGlu2 Glu max [1] [%]
N#Cc1cc(-c2ccc(F)cc2)c(OCCCOc2ccc(C(F)(F)F)nc2)cn1 [Compound 66, 4-(4-fluorophenyl)-5-(3-((6-(trifluoromethyl)pyridin-3-yl)oxy)propoxy)picolinonitrile] | > 30 |  | 
N#Cc1cc(-c2ccc(F)cc2)c(OCCCOc2ccnc(C(F)(F)F)c2)cn1 [Compound 67, 4-(4-fluorophenyl)-5-(3-((2-(trifluoromethyl)pyridin-4-yl)oxy)propoxy)picolinonitrile] | > 30 |  | 
Cc1ccc(OCCCOc2cnc(C#N)cc2-c2ccc(F)cc2)cn1 [Compound 68, 4-(4-fluorophenyl)-5-(3-((6-methylpyridin-3-yl)oxy)propoxy)picolinonitrile] | > 10 | 29 | 
C[C@@H]1CN(CCOc2cnc(C#N)cc2-c2ccc(F)cc2)C[C@H](C)O1 [Compound 70, 5-(2-((cis)-2,6-Dimethylmorpholino)ethoxy)-4-(4-fluorophenyl)picolinonitrile] | > 30 |  | 
N#Cc1cc(-c2ccc(F)cc2)c(OCCCN2CCOCC2)cn1 [Compound 71, 4-(4-fluorophenyl)-5-(3-morpholinopropoxy)picolinonitrile] | > 30 |  | 
CC1CN(CCCOc2cnc(C#N)cc2-c2ccc(F)cc2)CCO1 (centres unmarked) [Compound 72, 4-(4-fluorophenyl)-5-(3-(2-methylmorpholino)propoxy)picolinonitrile] | > 30 |  | 
CC1(C)CN(CCCOc2cnc(C#N)cc2-c2ccc(F)cc2)CCO1 [Compound 73, 5-(3-(2,2-dimethylmorpholino)propoxy)-4-(4-fluorophenyl)picolinonitrile] | > 30 |  | 
N#Cc1cc(-c2ccc(F)cc2)c(OCCCN2CCC(F)(F)CC2)cn1 [Compound 74, 5-(3-(4,4-difluoropiperidin-1-yl)propoxy)-4-(4-fluorophenyl)picolinonitrile] | > 10 | 49.6 | 
Cc1ncc(OCCOc2cnc(C#N)cc2-c2ccc(F)cc2)cn1 [Compound 75, 4-(4-Fluorophenyl)-5-(2-((2-methylpyrimidin-5-yl)oxy)ethoxy)picolinonitrile] | > 10 | 30.2 | 
CN(CCOCc1cncc(F)c1)c1cnc(C#N)cc1-c1ccc(F)cc1 [Compound 76, 4-(4-Fluorophenyl)-5-((2-((5-fluoropyridin-3-yl)methoxy)ethyl)(methyl)amino)picolinonitrile] | > 10 | 33.3 | 
NC(=O)c1cc(-c2ccc(F)cc2)c(N2CCC(Oc3ccc(C(F)(F)F)nc3)CC2)cn1 [Compound 77, 4-(4-Fluorophenyl)-5-(4-((6-(trifluoromethyl)pyridin-3-yl)oxy)piperidin-1-yl)picolinamide] | > 30 | 35.1 | 
CC1(C)CN(Cc2cnc(C(N)=O)cc2-c2ccc(F)cc2)CCO1 [Compound 78, 5-((2,2-dimethylmorpholino)methyl)-4-(4-fluorophenyl)picolinamide] | 0.531 | -0.32 | 
C[C@@H]1CN(Cc2cnc(C(N)=O)cc2-c2ccc(F)cc2)C[C@H](C)O1 [Compound 79, 5-(((cis)-2,6-dimethylmorpholino)methyl)-4-(4-fluorophenyl)picolinamide] | 0.987 | 0.52 | 
Cn1cc(-c2cc(C(N)=O)ncc2OCc2cc(F)cc(F)c2)cn1 [Compound 80, 5-((3,5-difluorobenzyl)oxy)-4-(1-methyl-1H-pyrazol-4-yl)picolinamide] | 4.13 | -0.09 | 
NC(=O)c1cc(-c2ccc(F)cc2)c(OCc2cccc(Br)c2F)cn1 [Compound 81, 5-((3-bromo-2-fluorobenzyl)oxy)-4-(4-fluorophenyl)picolinamide] | 1.53 | 2.19 | 
Cn1cc(-c2cc(C(N)=O)ncc2OCc2cccnc2)cn1 [Compound 82, 4-(1-methyl-1H-pyrazol-4-yl)-5-(pyridin-3-ylmethoxy)picolinamide] | > 30 |  | 
COc1ccc(-c2cc(C(N)=O)ncc2OCc2ccc(C)nc2)c(F)c1 [Compound 83, 4-(2-fluoro-4-methoxyphenyl)-5-((6-methylpyridin-3-yl)methoxy)picolinamide] | 0.216 | 1 | 
Cc1ccc(COc2cnc(C(N)=O)cc2-c2ccc(C(F)(F)F)nc2)cn1 [Compound 84, 5′-((6-methylpyridin-3-yl)methoxy)-6-(trifluoromethyl)-[3,4′-bipyridine]-2′-carboxamide] | > 30 |  | 
Cc1ccc(COc2cnc(C(N)=O)cc2-c2cnn(C)c2)cn1 [Compound 85, 4-(1-methyl-1H-pyrazol-4-yl)-5-((6-methylpyridin-3-yl)methoxy)picolinamide] | > 10 | 46.7 | 
COc1ccc(-c2cc(C(N)=O)ncc2OCc2ccc(C(F)(F)F)nc2)c(F)c1 [Compound 86, 4-(2-fluoro-4-methoxyphenyl)-5-((6-(trifluoromethyl)pyridin-3-yl)methoxy)picolinamide] | 0.44 | 1.16 | 
Cn1cc(-c2cc(C(N)=O)ncc2OCc2ccc(C(F)(F)F)nc2)cn1 [Compound 87, 4-(1-methyl-1H-pyrazol-4-y1)-5-((6-(trifluoromethyl)pyridin-3-yl)methoxy)picolinamide] | > 10 |  | 29.69
COc1ccc(-c2cc(C(N)=O)ncc2OCc2ccnc(C)c2)c(F)c1 [Compound 88, 4-(2-fluoro-4-methoxyphenyl)-5-((2-methylpyridin-4-yl)methoxy)picolinamide] | 0.029 ± 0.005 | 1.65 ± 0.23 | 
Cc1cc(COc2cnc(C(N)=O)cc2-c2cnn(C)c2)ccn1 [Compound 89, 4-(1-methyl-1H-pyrazol-4-yl)-5-((2-methylpyridin-4-yl)methoxy)picolinamide] | > 10 | 30.7 | 
NC(=O)c1cc(-c2ccc(F)cc2)c(COc2cc(F)cc(F)c2)cn1 [Compound 90, 5-((3,5-difluorophenoxy)methyl)-4-(4-fluorophenyl)picolinamide] | 2.03 | 0.21 | 
NC(=O)c1cc(-c2ccc(F)cc2)c(COc2ccc(C(F)(F)F)nc2)cn1 [Compound 91, 4-(4-fluorophenyl)-5-(((6-(trifluoromethyl)pyridin-3-yl)oxy)methyl)picolinamide] | 0.639 | 0.51 | 
Cc1ccc(OCc2cnc(C(N)=O)cc2-c2ccc(F)cc2)cn1 [Compound 92, 4-(4-fluorophenyl)-5-(((6-methylpyridin-3-yl)oxy)methyl)picolinamide] | 1.66 | -2.16 | 
NC(=O)c1cc(-c2ccc(F)cc2)c(COc2ccnc(C(F)(F)F)c2)cn1 [Compound 93, 4-(4-fluorophenyl)-5-(((2-(trifluoromethyl)pyridin-4-yl)oxy)methyl)picolinamide] | 0.477 | 0.38 | 
NC(=O)c1cc(-c2ccc(F)cc2)c(OCCN2CCOCC2)cn1 [Compound 94, 4-(4-fluorophenyl)-5-(2-morpholinoethoxy)picolinamide] | > 10 | 49 | 
C[C@@H]1CN(CCOc2cnc(C(N)=O)cc2-c2ccc(F)cc2)C[C@H](C)O1 [Compound 95, 5-(2-((cis)-2,6-dimethylmorpholino)ethoxy)-4-(4-fluorophenyl)picolinamide] | > 10 | 22.8 | 
